Here are results for 1 compound from patent US6548553B2, “Styryl sulfone anticancer agents” (Temple University-of the Commonwealth System of Higher …, priority 1997, dated 2003).

Holding throughout (assay type): cell-based
Series [1] has as its system LnCaP and MCF-7 cells. Briefly: Trypan blue exclusion viability assay, Tables 2-4. The following applies: 5.0 μM compound, 48 hours, read-out: % viable LnCaP and MCF-7 cells. The procedure:
(§1) The effect of the styryl sulfones on the growth of normal and tumor cells of breast and prostate was examine utilizing four cell lines, NIH3T3, MCF-7, BT-20 and LnCap. NIH/3T3 cells represent normal fibroblasts while LnCap is an androgen-dependent prostate tumor cell line. MCF-7 is an estrogen-responsive breast tumor cell line, while BT-20 is an estrogen-unresponsive breast tumor cell line. MCF-7 and BT-20 were grown in Dulbecco's modified Eagle's medium (DMEM) containing 10% fetal bovine serum supplemented with penicillin and streptomycin. LnCaP were cultured in RPMI with 10% fetal bovine serum containing penicillin and streptomycin. NIH3T3 cells were grown in DMEM containing 10% calf serum supplemented with penicillin and streptomycin. All cell cultures were maintained at 37° C. in a humidified atmosphere of 5% CO2.
Cells were treated with test compound at 2.5 μM or 5.0 μM concentration and cell viability was determined after 48 hours by the Trypan blue exclusion method. The compounds identified in Tables 2, 3 and 4 inhibited cell growth and induced cell death, to varying degrees. The tables list the percent viable LnCap and MCF-7 cells treated with 5.0 μM compound.

Series [2] deals with LnCaP, BT-20 and MCF-7 cells. Description: Trypan blue exclusion viability/proliferation assay (dose and time course). The procedure: as §1
(§2) The compounds identified in Tables 2, 3 and 4 inhibited cell growth and induced cell death, to varying degrees. The tables list the percent viable LnCap and MCF-7 cells treated with 5.0 μM compound.
NIH3T3, MCF-7, BT-20 and LnCaP cells were treated with FRI-20 dissolved in DMSO to concentrations of 250 nM, 500 nM, 1 μM, 2.5 μM and 5 μM and examined for their proliferation and viability after 48 hours (FIG. 2A). The percentage of living cells was determined by Trypan blue exclusion. The control cells were treated with DMSO to determine the effect of solvent on cells. […] Under these conditions, only 2-3% of NIH3T3 cells were non-viable at both the concentrations. […] After 48 hours incubation, 60-75% of the LnCaP, BT-20 and MCF-7 cells were dead at […] FRI-20 concentration, whereas more than 90% of NIH3T3 cells were viable (FIG. 2A).
NIH/3T3, MCF-7, BT-20 and LnCap were treated with FRI-20 at 2.5 μM and the number of viable cells was determined at 12, 24, 48 and 72 hours by Trypan blue exclusion.

A short description of series [3]: Trypan blue exclusion viability assay, normal fibroblasts. Set-up: viability at 48 h: dose or concentration left out as unconfirmed. The following applies: mouse, NIH3T3 cells (normal fibroblasts). The procedure: as §1, §2
The percentage of living cells was determined by Trypan blue exclusion. The control cells were treated with DMSO to determine the effect of solvent on cells. […] Under these conditions, only 2-3% of NIH3T3 cells were non-viable at both the concentrations. […] After 48 hours incubation, 60-75% of the LnCaP, BT-20 and MCF-7 cells were dead at […] FRI-20 concentration, whereas more than 90% of NIH3T3 cells were viable (FIG. 2A).

The subject of series [4] is DU-145 cells. Description: Trypan blue exclusion viability assay, prostate tumor cell line. Set-up: unit of the concentration uncertain. The following applies: 48 hours. The procedure: (§3) The effect of FR-20 on the growth of normal and tumor cells of breast and prostate was examine utilizing nine cell lines: NIH/3T3 and HFL (normal fibroblast cell lines); MCF-7 and 361 ([…] breast tumor cell lines); BT-20, 435 and SKBR-3 ([…] breast tumor cell lines); LnCaP (androgen sensitive prostate tumor cell line); PC-3 and DU-145 (androgen insensitive prostate tumor cell line).
(§4) The cells were grown as in Example 22, A. FR-20 was dissolved in DMSO and added to the cells at 2.5 μM and 5.0 μM concentration. To control cells, DMSO was added equivalent to the volume of solvent (DMSO) present at the highest concentration of the compound. The activity of the compound was evaluated after 48 hours by Trypan blue exclusion. […] Nearly 50% of SKBR-3 and BT-20 cells were dead at 2.5 μM and 75% at 5.0 μM concentration of the compound. […] FRI-20 had profound effect on the viability of androgen-dependent LnCaP prostate tumor cell line when compared to androgen-independent DU-145 and PC-3 prostate cell lines. At […] FRI-20, 80% of LnCaP, 40% of PC-3 and 20% of DU-145 cells were killed. At […] FRI-20, 72% of LnCaP, 47% of PC-3 and 40% of DU-145 were killed (FIG. 3B).

For series [5], the system named is LnCaP prostate tumor cell line. The series is described as above. Set-up: unit of the concentration uncertain. The following applies: 48 hours. The procedure: as §3, §4
The test system of series [6] is JNK. Description: JNK immune complex kinase assay with GST-c-Jun substrate, treated cells. The following applies: 48 hours treatment; NIH3T3, MCF-7 or LnCaP. The procedure:
To further establish if the activity of stress activated protein kinases (SAPKs), of which JNK is a member, is compromised in the presence of FRI-20, cells (NIH3T3, MCF-7 or LnCaP) were treated with FRI-20 dissolved in DMSO or with DMSO alone. Forty-eight hours later, the cells were lysed with kinase buffer and the lysates used for estimation of the amount of JNK present in each lysate by western blot analysis using JNK polyclonal antibody. The biochemical activity of the JNK present in the FRI-20-treated and mock-treated cell lysates was also determined by immunoprecipitation of JNK followed by incubation with GST-c-Jun protein as a substrate for JNK in the presence of [γ-^32P]ATP.
Accordingly, JNK-1 in 100 mg of cell extracts was immunoprecipitated by incubating the lysate with […] of JNK-1 polyclonal antibody (sc from Santa Cruz Biotechnology) for one hour followed by an additional incubation with 20 μl of protein A-Sepharose (Pharmacia) for one hour. The beads were washed twice with JNK lysis buffer (as described above) followed by two washes with JNK reaction buffer. The beads were resuspended in 40 μl of JNK buffer containing […] [γ-^32P] […] The reaction was stopped, and the radioactivity in the phosphorylated GST-c-Jun protein was quantitated.

The subject of series [7] is LnCaP, BT-20 and MCF-7 cells. Briefly: Trypan blue exclusion viability/proliferation assay (dose and time course). The following applies: 2.5 mM (FIG. 1A) and 5.0 mM (FIG. 1B), 48 hours of treatment.

`O=S(=O)(/C=C/c1ccc(F)cc1)Cc1ccc(Cl)cc1` [Example 11, E-4-fluorostyryl 4-chlorobenzyl Sulfone]: the viability at 5 µM in series [1] worked out at 6%. Besides, the cell death result is “about 10%” in series [2] (250 nM, 48 hours); 25-30% in series [2] (500 nM, 48 hours); ~90% in series [2] (5 μM, 48 hours). The inhibition at 0.25 µM in series [2] (250 nM, 48 hours, read-out: inhibition in cell division compared to untreated cells) was in the range of 15 to 20%. The inhibition at 0.5 µM in series [2] (500 nM, 48 hours, read-out: inhibition in cell proliferation) fell in the range of 30 to 50%. Further, the “cell growth inhibition with loss of cell viability” value in series [2] (1 μM, 48 hours) is “greatly inhibited”. In addition, the dead cells was 60-75% in series [2] (2.5 µM, 48 hours incubation) and “more than 95%” in series [2] (2.5 μM, 72 hours of treatment). Also, the cytotoxicity at 48 h in series [3] (250 nM and 500 nM, 48 hours, read-out: non-viable NIH3T3 cells) was in the range of 2 to 3%. Besides, the viability at 48 h, 5 µM in series [3] (5 μM) is > 80%. The viability at 48 h in series [3] (48 hours incubation, read-out: viable NIH3T3 cells) is > 80%. Besides, the cells killed was determined as 20% in series [4] (2.5 µM), 40% in series [4] (5.0 µM), 80% in series [5] (2.5 µM) and 72% in series [5] (5.0 µM). For the same compound, the “enhancement of JNK phosphorylation of GST-c-Jun compared to mock-treated cells” value in series [6] is reported as 60-80%. Also, the “inhibition of growth and induction of death of LnCaP, BT-20 and MCF-7 cells” value in series [7] was “substantially inhibit the growth and induce the death”.
